Assay results reported in paper PMC11012124, “Synthesis of Novel Triazine-Based Chalcones and 8,9-dihydro-7H-pyrimido[4,5-b][1,4]diazepines as Potential Leads in the Search of Anticancer, Antibacterial and Antifungal Agents” (International Journal of Molecular Sciences, 2024).

What was measured:
[1] = system: 60 cancer cell lines; test: NCI-60 one-dose screen (10 μM); assay type: cell-based; details: Homo sapiens; one dose of 10 μM, mean over 60 cancer cell lines; read-out: Mean Growth Percent (MGP)
From the text: Additionally, the mean of the growth percentages (MGP) of each compound against all the 60 cancer cell lines is also reported, which is used as one of the selection criteria to continue with tests at five concentration doses.

[2] = Hemolytic activity, spectrophotometric; assay type: cell-based, human; details: human, human red blood cells (huRBC), 5% hematocrit, 200 μg/mL, 37 °C
[3] = system: CCRF-CEM; test: cells; details: Homo sapiens, 48 h
[4] = system: HL-60(TB); test: cells; details: Homo sapiens, HL-60, 48 h
[5] = system: MOLT-4; test: cells; details: Homo sapiens, MOLT-4, 48 h
[6] = system: RPMI-8226; test: cells; details: Homo sapiens, RPMI-8226, 48 h
[7] = system: EKVX; test: cells; details: Homo sapiens, 48 h
[8] = system: HOP-62; test: cells; details: Homo sapiens, HOP-62, 48 h
[9] = system: NCI-H226; test: cells; details: Homo sapiens, NCI-H226, 48 h
[10] = system: NCI-H322M; test: cells; details: Homo sapiens, 48 h
[11] = system: COLO 205; test: cells; details: Homo sapiens, COLO 205, 48 h
[12] = system: HCT-116; test: cells; details: Homo sapiens, HCT-116, 48 h
[13] = system: HT29; test: cells; details: Homo sapiens, HT-29, 48 h
[14] = system: SF-268; test: cells; details: Homo sapiens, SF-268, 48 h
[15] = system: SF-295; test: cells; details: Homo sapiens, SF-295, 48 h
[16] = system: SF-539; test: cells; details: Homo sapiens, SF-539, 48 h
[17] = system: U251; test: cells; details: Homo sapiens, U-251, 48 h
[18] = system: LOX IMVI; test: cells; details: Homo sapiens, 48 h
[19] = system: MALME-3M; test: cells; details: Homo sapiens, 48 h
[20] = system: M14; test: cells; details: Homo sapiens, M14, 48 h
[21] = system: MDA-MB-435; test: cells; details: Homo sapiens, MDA-MB-435, 48 h
[22] = system: UACC-257; test: cells; details: Homo sapiens, UACC-257, 48 h
[23] = system: UACC-62; test: cells; details: Homo sapiens, UACC-62, 48 h
[24] = system: OVCAR-3; test: cells; details: Homo sapiens, OVCAR-3, 48 h
[25] = system: OVCAR-4; test: cells; details: Homo sapiens, OVCAR-4, 48 h
[26] = system: OVCAR-5; test: cells; details: Homo sapiens, OVCAR-5, 48 h
[27] = system: OVCAR-8; test: cells; details: Homo sapiens, OVCAR-8, 48 h
[28] = system: A498; test: cells; details: Homo sapiens, A498, 48 h
[29] = system: ACHN; test: cells; details: Homo sapiens, 48 h
[30] = system: SN12C; test: cells; details: Homo sapiens, 48 h
[31] = system: UO-31; test: cells; details: Homo sapiens, UO-31, 48 h
[32] = system: PC-3; test: cells; details: Homo sapiens, PC-3, 48 h
[33] = system: DU-145; test: cells; details: Homo sapiens, DU-145, 48 h
[34] = system: MCF7; test: cells; details: Homo sapiens, MCF7, 48 h
[35] = system: MDA-MB-231/ATCC; test: cells; details: Homo sapiens, MDA-MB-231, 48 h
[36] = system: HS 578T; test: cells; details: Homo sapiens, 48 h
[37] = system: BT-549; test: cells; details: Homo sapiens, BT-549, 48 h
[38] = system: T-47D; test: cells; details: Homo sapiens, T47D, 48 h

CN(C)c1nc(NCCNS(=O)(=O)c2ccc(C(=O)/C=C/c3ccc(Cl)cc3)cc2)nc(Nc2ccc(F)cc2)n1 [24e]
activity at 10 µM [1]: -46.6% | hemolysis at 24 h, 200 µg/mL [2]: 9.1% | GI50 [3]: 3.75 µM | CC50 ([3]; read-out: LC50): > 100 µM | GI50 [4]: 4.39 µM | CC50 ([4]; read-out: LC50): > 100 µM | GI50 [5]: 3.07 µM | CC50 ([5]; read-out: LC50): > 100 µM | GI50 [6]: 2.47 µM | CC50 ([6]; read-out: LC50): 7.11 µM | GI50 [7]: 3.11 µM | CC50 ([7]; read-out: LC50): 14.7 µM | GI50 [8]: 12.5 µM | CC50 ([8]; read-out: LC50): 27.5 µM | GI50 [9]: 6.14 µM | CC50 ([9]; read-out: LC50): 24.3 µM | GI50 [10]: 9.36 µM | CC50 ([10]; read-out: LC50): 24.9 µM | GI50 [11]: 5.96 µM | CC50 ([11]; read-out: LC50): 18.7 µM | GI50 [12]: 1.66 µM | CC50 ([12]; read-out: LC50): 3.11 µM | GI50 [13]: 2.15 µM | CC50 ([13]; read-out: LC50): 5.72 µM | GI50 [14]: 6.21 µM | CC50 ([14]; read-out: LC50): 23.5 µM | GI50 [15]: 6.11 µM | CC50 ([15]; read-out: LC50): 19.8 µM | GI50 [16]: 10.1 µM | CC50 ([16]; read-out: LC50, SF-539, 48 h): 22 µM | GI50 ([17]; U251, 48 h): 5.25 µM | CC50 ([17]; read-out: LC50): 18.6 µM | GI50 [18]: 2.74 µM | CC50 ([18]; read-out: LC50, LOX IMVI, 48 h): 9.16 µM | GI50 [19]: 12.8 µM | CC50 ([19]; read-out: LC50): 26.4 µM | GI50 [20]: 4.14 µM | CC50 ([20]; read-out: LC50): 15.3 µM | GI50 [21]: 3.8 µM | CC50 ([21]; read-out: LC50): 14 µM | GI50 [22]: 8.36 µM | CC50 ([22]; read-out: LC50): 21.8 µM | GI50 [23]: 5.41 µM | CC50 ([23]; read-out: LC50): 18.7 µM | GI50 [24]: 3.16 µM | CC50 ([24]; read-out: LC50): 11.9 µM | GI50 [25]: 5.92 µM | CC50 ([25]; read-out: LC50): 22 µM | GI50 [26]: 10.7 µM | CC50 ([26]; read-out: LC50): 22.6 µM | GI50 [27]: 10.2 µM | CC50 ([27]; read-out: LC50): 23.7 µM | GI50 [28]: 10.5 µM | CC50 ([28]; read-out: LC50): 23.1 µM | GI50 [29]: 4.2 µM | CC50 ([29]; read-out: LC50): 15.3 µM | GI50 [30]: 3.79 µM | CC50 ([30]; read-out: LC50): 15.9 µM | GI50 [31]: 4 µM | CC50 ([31]; read-out: LC50): 16.6 µM | GI50 [32]: 3.74 µM | CC50 ([32]; read-out: LC50): 14.1 µM | GI50 [33]: 9.7 µM | CC50 ([33]; read-out: LC50): 21.8 µM | GI50 [34]: 2.28 µM | CC50 ([34]; read-out: LC50): 6.33 µM | GI50 [35]: 4.72 µM | CC50 ([35]; read-out: LC50): 17.4 µM | GI50 [36]: 11.4 µM | CC50 ([36]; read-out: LC50): 58.1 µM | GI50 [37]: 11.6 µM | CC50 ([37]; read-out: LC50): 23.9 µM | GI50 [38]: 4.37 µM | CC50 ([38]; read-out: LC50): 18 µM
